Experimental data taken from US7932050B2, “Enzymatic substrates derived from phenoxazinone and their use as developers in detection of microorganisms with peptidase activity” (bioMerieux, priority 2004, dated 2011).

Tests used:
Format in all cases: cell-based
Pseudomonas putida = assay: Detection of β-alanine peptidase activity (example 11), colony coloration; conditions: between 24 and 48 h of incubation; Applicant's collection
Escherichia coli = assay: as above; conditions: between 24 and 48 h of incubation; Applicant's collection
[1] = test system: Burkholderia cepacia LMG 18941; assay: as above; conditions: between 24 and 48 h of incubation; strain LMG 18941
[2] = test system: Burkholderia Gladioli LGM 6880; assay: as above; conditions: between 24 and 48 h of incubation; strain LGM 6880
Pseudomonas aeruginosa [3] = assay: as above; conditions: between 24 and 48 h of incubation
Pseudomonas fluorescens = assay: as above; conditions: between 24 and 48 h of incubation; Applicant's collection
[4] = test system: Burkholderia cepacia GIII LMG 18832; assay: Detection of β-alanine peptidase activity (example 9), colony coloration; conditions: between 24 and 48 h of incubation; strain LMG 18832
Ralstonia taiwanensis = conditions: between 24 and 48 h of incubation
[5] = test system: Acinetobacter baumannii ATCC 19606; assay: Detection of β-alanine peptidase activity (example 9), colony coloration; conditions: between 24 and 48 h of incubation; strain ATCC 19606
[6] = test system: Pseudomonas fragilis NCIMB 8987; assay: as above; conditions: between 24 and 48 h of incubation; strain NCIMB 8987
[7] = test system: Acinetobacter calcoaceticus; assay: as above; conditions: between 24 and 48 h of incubation
[8] = test system: Burkholderia cepacia GI LMG1222; assay: as above; conditions: between 24 and 48 h of incubation; strain LMG1222
Ralstonia basilensis = conditions: between 24 and 48 h of incubation
Pseudomonas maltophilia = assay: Detection of β-alanine peptidase activity (example 9), colony coloration; conditions: between 24 and 48 h of incubation
Pseudomonas aeruginosa [9] = assay: as above; conditions: between 24 and 48 h of incubation, no accession No.
Salmonella hadar = assay: Detection of L-alanine peptidase activity on Columbia agar containing the substrate; design: key to C [head as printed; cells hold growth signs]: the sign ++ signifies very good growth; the sign + signifies good growth of the strain; the sign +/− signifies average growth of the strain; the sign − signifies absence of growth of the strain; conditions: substrate 50 mg/l in Columbia agar; 24 to 48 h at 37° C.
[10] = test system: Klebsiella pneumoniae NCTC 10896; assay: as above; design: key to C [head as printed; cells hold growth signs]: the sign ++ signifies very good growth; the sign + signifies good growth of the strain; the sign +/− signifies average growth of the strain; the sign − signifies absence of growth of the strain; conditions: substrate 50 mg/l in Columbia agar; 24 to 48 h at 37° C.
[11] = test system: Streptococcus pyogenes NCTC 8306; assay: as above; design: key to G [head as printed; cells hold colony color]: I signifies colorless; key to C [head as printed; cells hold growth signs]: the sign ++ signifies very good growth; the sign + signifies good growth of the strain; the sign +/− signifies average growth of the strain; the sign − signifies absence of growth of the strain; conditions: substrate 50 mg/l in Columbia agar; 24 to 48 h at 37° C.
[12] = test system: Staphylococcus aureus NCTC 6571; assay: as above; design: key to G [head as printed; cells hold colony color]: I signifies colorless; key to C [head as printed; cells hold growth signs]: the sign ++ signifies very good growth; the sign + signifies good growth of the strain; the sign +/− signifies average growth of the strain; the sign − signifies absence of growth of the strain; conditions: substrate 50 mg/l in Columbia agar; 24 to 48 h at 37° C.
[13] = test system: Providencia rettgeri NCTC 7475; assay: as above; design: key to C [head as printed; cells hold growth signs]: the sign ++ signifies very good growth; the sign + signifies good growth of the strain; the sign +/− signifies average growth of the strain; the sign − signifies absence of growth of the strain; conditions: substrate 50 mg/l in Columbia agar; 24 to 48 h at 37° C.
[14] = test system: Listeria monocytogenes NCTC 11994; assay: as above; design: key to G [head as printed; cells hold colony color]: I signifies colorless; key to C [head as printed; cells hold growth signs]: the sign ++ signifies very good growth; the sign + signifies good growth of the strain; the sign +/− signifies average growth of the strain; the sign − signifies absence of growth of the strain; conditions: substrate 50 mg/l in Columbia agar; 24 to 48 h at 37° C.
[15] = test system: Escherichia coli NCTC 10418; assay: as above; design: key to C [head as printed; cells hold growth signs]: the sign ++ signifies very good growth; the sign + signifies good growth of the strain; the sign +/− signifies average growth of the strain; the sign − signifies absence of growth of the strain; conditions: substrate 50 mg/l in Columbia agar; 24 to 48 h at 37° C.
[16] = test system: Pseudomonas aeruginosa NCTC 10662; assay: as above; design: key to C [head as printed; cells hold growth signs]: the sign ++ signifies very good growth; the sign + signifies good growth of the strain; the sign +/− signifies average growth of the strain; the sign − signifies absence of growth of the strain; conditions: substrate 50 mg/l in Columbia agar; 24 to 48 h at 37° C.
[17] = test system: Proteus mirabilis NCTC 10975; assay: as above; design: key to C [head as printed; cells hold growth signs]: the sign ++ signifies very good growth; the sign + signifies good growth of the strain; the sign +/− signifies average growth of the strain; the sign − signifies absence of growth of the strain; conditions: substrate 50 mg/l in Columbia agar; 24 to 48 h at 37° C.
[18] = strain of Applicant's collection (r9)
[19] = strain of Applicant's collection (r13)
[20] = first P. aeruginosa strain of table 2 (r6)
[21] = fourth P. aeruginosa strain of table 2 (r12)
[22] = second P. aeruginosa strain of table 2 (r8)
[23] = third P. aeruginosa strain of table 2 (r10)

Cc1c2nc3ccc(NC(=O)CCN)cc3oc-2cc(=O)c1C.O=C(O)C(F)(F)F [b-ala-DMP, 7-N-(β-Alanyl)amino-1,2-dimethylphenoxazin-3-one trifluoroacetate salt]
coloration (Pseudomonas putida): colorless
coloration (Escherichia coli): orange
coloration [1]: pale pink
coloration [2]: colorless
coloration (Pseudomonas aeruginosa [3]; strain ATCC 9027): deep pink
coloration (Pseudomonas aeruginosa [3]; strain ATCC 10145): deep pink
coloration (Pseudomonas aeruginosa [3]; strain ATCC 27853): pink
coloration (Pseudomonas aeruginosa [3]; [18]): deep pink
coloration (Pseudomonas aeruginosa [3]; [19]): colorless
coloration (Pseudomonas fluorescens): colorless

CCCCCc1c2nc3ccc(NC(=O)CCNC(=O)OC(C)(C)C)cc3oc-2cc(=O)c1Cl [Chlorinated beta-alanyl compound, 7-N—(N′-t-butoxycarbonyl-β-alanyl)amino-2-chloro-1-pentylphenoxazin-3-one]
coloration [4]: yellow
coloration (Ralstonia taiwanensis): colorless
coloration [5]: colorless
coloration [6]: colorless
coloration [7]: colorless
coloration [8]: yellow
coloration (Ralstonia basilensis): colorless
coloration (Pseudomonas maltophilia): colorless
coloration (Pseudomonas aeruginosa [9]; [20]): purple
coloration (Pseudomonas aeruginosa [9]; [21]): purple
coloration (Pseudomonas aeruginosa [9]; [22]): pale purple
coloration (Pseudomonas aeruginosa [9]; [23]): pale purple

CCCCCc1cc(=O)cc2oc3cc(NC(=O)CCNC(=O)OC(C)(C)C)ccc3nc1-2 [Nonchlorinated beta-alanyl compound, 7-N—(N′-t-butoxycarbonyl-β-alanyl)amino-1-pentylphenoxazin-3-one]
coloration [4]: yellow
coloration (Ralstonia taiwanensis): colorless
coloration [5]: colorless
coloration [6]: colorless
coloration [7]: colorless
coloration [8]: yellow
coloration (Ralstonia basilensis): colorless
coloration (Pseudomonas maltophilia): colorless
coloration (Pseudomonas aeruginosa [9]; [20]): purple
coloration (Pseudomonas aeruginosa [9]; [21]): purple
coloration (Pseudomonas aeruginosa [9]; [22]): purple
coloration (Pseudomonas aeruginosa [9]; [23]): purple

CCCCCc1c2nc3ccc(NC(=O)[C@H](C)NC(=O)OC(C)(C)C)cc3oc-2cc(=O)c1Cl [Chlorinated L-alanyl compound, 7-N—(N′-t-butoxycarbonyl-L-alanyl)amino-2-chloro-1-pentylphenoxazin-3-one]
C [head as printed; cells hold growth signs] (Salmonella hadar): +
G [head as printed; cells hold colony color] (Salmonella hadar): pinl/purple
C [head as printed; cells hold growth signs] [10]: +
G [head as printed; cells hold colony color] [10]: pink/purple
C [head as printed; cells hold growth signs] [11]: +/−
G [head as printed; cells hold colony color] [11]: I
C [head as printed; cells hold growth signs] [12]: +
G [head as printed; cells hold colony color] [12]: I
C [head as printed; cells hold growth signs] [13]: +
G [head as printed; cells hold colony color] [13]: pink/purple
C [head as printed; cells hold growth signs] [14]: +
G [head as printed; cells hold colony color] [14]: I
C [head as printed; cells hold growth signs] [15]: +
G [head as printed; cells hold colony color] [15]: pink/purple
C [head as printed; cells hold growth signs] [16]: +
G [head as printed; cells hold colony color] [16]: pink/purple
C [head as printed; cells hold growth signs] [17]: +
G [head as printed; cells hold colony color] [17]: pink/purple

CCCCCc1cc(=O)cc2oc3cc(NC(=O)[C@H](C)NC(=O)OC(C)(C)C)ccc3nc1-2 [Nonchlorinated L-alanyl compound, 7-N—(N″-t-butoxycarbonyl-L-alanyl)amino-1-pentylphenoxazin-3-one]
C [head as printed; cells hold growth signs] (Salmonella hadar): +
G [head as printed; cells hold colony color] (Salmonella hadar): purple
C [head as printed; cells hold growth signs] [10]: +
G [head as printed; cells hold colony color] [10]: purple
C [head as printed; cells hold growth signs] [11]: −
G [head as printed; cells hold colony color] [11]: I
C [head as printed; cells hold growth signs] [12]: −
G [head as printed; cells hold colony color] [12]: I
C [head as printed; cells hold growth signs] [13]: +
G [head as printed; cells hold colony color] [13]: purple
C [head as printed; cells hold growth signs] [14]: −
G [head as printed; cells hold colony color] [14]: I
C [head as printed; cells hold growth signs] [15]: +
G [head as printed; cells hold colony color] [15]: purple
C [head as printed; cells hold growth signs] [16]: +
G [head as printed; cells hold colony color] [16]: purple
C [head as printed; cells hold growth signs] [17]: +
G [head as printed; cells hold colony color] [17]: purple

Cc1c2nc3ccc(NC(=O)CCN)cc3oc-2c(C)c(=O)c1C.O=C(O)C(F)(F)F [b-ala-TMP, 7-N-(β-Alanyl)amino-1,2,4-trimethylphenoxazin-3-one trifluoroacetate salt]
coloration (Pseudomonas putida): colorless
coloration (Escherichia coli): orange
coloration [1]: pale pink
coloration [2]: colorless
coloration (Pseudomonas aeruginosa [3]; strain ATCC 9027): pink
coloration (Pseudomonas aeruginosa [3]; strain ATCC 10145): orangy-
coloration (Pseudomonas aeruginosa [3]; strain ATCC 27853): pink
coloration (Pseudomonas aeruginosa [3]; [18]): orangy-
coloration (Pseudomonas aeruginosa [3]; [19]): colorless
coloration (Pseudomonas fluorescens): colorless

COC(=O)c1c2oc3cc(NC(=O)CCNC(=O)OC(C)(C)C)ccc3nc-2c(C)c(Cl)c1=O [b-ala-MCMP, methyl 7-N—(N′-t-butoxycarbonyl-β-alanyl)amino-1-methyl-2-chlorophenoxazin-3-one-4-carboxylate]
coloration (Pseudomonas putida): colorless
coloration (Escherichia coli): colorless
coloration [1]: colorless
coloration [2]: colorless
coloration (Pseudomonas aeruginosa [3]; strain ATCC 9027): pink-
coloration (Pseudomonas aeruginosa [3]; strain ATCC 10145): violet
coloration (Pseudomonas aeruginosa [3]; strain ATCC 27853): violet
coloration (Pseudomonas aeruginosa [3]; [18]): violet
coloration (Pseudomonas aeruginosa [3]; [19]): colorless
coloration (Pseudomonas fluorescens): colorless
